Data published in patent US9439904B2, “Pyrimidine compounds and their use as gamma secretase modulators” (Acturum Life Science AB, priority 2013, dated 2016).

Key:
Aβ42 [1] = assay: PCN assay: Aβ42 secreted by primary cortical neuronal cells, ELISA; type: cell-based; settings: primary cortical neuronal cells from 16-day mouse embryos; 16-20 hours incubation with test compound; read-out: pIC50 Aβ42 PCN assay (converted)
Method: Compounds were diluted in 100% DMSO and stored at […] prior to use. Primary cortical neuronal cells (PCN) were isolated from 16-day mouse embryos and cultured in Ham's F12 media containing 10% Foetal bovine serum, 10 mM Hepes, 2 mM L-glutamine and 100 U/mL Penicillin-Streptomycin. 150000-250000 cells/well, in 200 μL cell media were seeded onto 96-well poly-D-Lysine coated plates. After incubation at 37° C., 5% CO2 for five days, the media was exchanged for fresh medium containing test compound diluted ×100, before further incubation for 16-20 hours at 37° C. and 5% CO2. After incubation with test compound the amount of […] secreted to cell medium was analyzed using the solid phase sandwich Enzyme-Linked-Immuno-Sorbent Assay (ELISA)-kit from Invitrogen for detection of mouse βAmyloid 1-42. Potential cytotoxic effects of the compounds were assayed by measuring the ATP content (Via Light) from cell lysate.

Aβ42 [2] = assay: HEK assay: Aβ42 secreted to cell medium, Meso Scale Discovery electrochemiluminescence; type: cell-based; settings: Homo sapiens, HEK293; HEK cell line stably expressing APPswe; 4-6 hours incubation with test compound; read-out: pIC50 Aβ42 HEK assay (converted)
Method: Compounds were diluted in 100% DMSO and stored at […] prior to use. Human Embryonic Kidney (HEK) cell line stably expressing APP with the Swedish mutation (APPswe) was cultured using Dulbecco's Modified Eagles medium (DMEM) supplied with […] glucose, Na-pyruvate and GlutaMAX, 10% Foetal bovine serum, 100 U/mL penicillin-streptomycin (PEST), 1× non-essential amino acids (NEAA), […] Hepes, 100 μg/mL Zeocine. Cells at about 80% confluence were washed with PBS, detached from culture flasks using 1× Trypsin/EDTA diluted in PBS, re-suspended in cell media and plated in 384-well poly-d-lysine coated cell culture plates at about 10000-15000 cells/well, in 25 μL cell media. Optionally, cryo-preserved cells (frozen and stored at −140° C. in 90% cell media and 10% DMSO) were thawed, washed and plated as above. Next the cells were incubated for 15-24 h at 37° C. and 5% CO2, after which cell medium was changed. Fresh medium containing test compound diluted ×200 from prepared compound plate was added to the cells before further incubation for 4-6 hours at 37° C. and 5% CO2. After incubation with test compound the amount of Aβ peptides, including Aβ42, Aβ40, Aβ39, Aβ38 and Aβ37, secreted to cell medium was analyzed using the electrochemiluminescence assay technology from Meso Scale Discovery Technology, in combination with specific antibodies raised against the different Aβ peptides. Potential cytotoxic effects of the compounds were assayed by measuring the ATP content (ViaLight) from cell lysate.

| Structure (SMILES) | IC50 (Aβ42 [2]) | IC50 (Aβ42 [1]) |
| --- | --- | --- |
| COc1cc(Nc2nc(COCC(F)(F)F)cc(N3CCC(F)(F)CC3)n2)ccc1-n1cnc(C)c1 [Example 26, 4-(4,4-Difluoropiperidin-1-yl)-N-(3-methoxy-4-(4-methyl-1H-imidazol-1-yl)phenyl)-6-((2,2,2-trifluoroethoxy)methyl)pyrimidin-2-amine] | 0.0501 µM | 0.02 µM |
| COCc1cc(C(C)(C)O)nc(Nc2ccc(-n3cnc(C)c3)c(OC)c2)n1 [Example 27, 2-(2-(3-Methoxy-4-(4-methyl-1H-imidazol-1-yl)phenylamino)-6-(methoxymethyl)pyrimidin-4-yl)propan-2-ol] | 0.158 µM | 0.126 µM |
| COc1cn(-c2ccc(Nc3nc(COCC(F)(F)F)cc(C(C)O)n3)cc2OC)cn1 (centres unmarked) [Example 31, 1-(2-(3-Methoxy-4-(4-methoxy-1H-imidazol-1-yl)phenylamino)-6-((2,2,2-trifluoroethoxy)-methyl)pyrimidin-4-yl)ethanol] | 0.251 µM | 0.316 µM |
| COc1cn(-c2ccc(Nc3nc(COCC(F)(F)F)cc(C(C)(C)O)n3)cc2OC)cn1 [Example 32, 2-(2-(3-Methoxy-4-(4-methoxy-1H-imidazol-1-yl)phenylamino)-6-((2,2,2-trifluoroethoxy)-methyl)pyrimidin-4-yl)propan-2-ol] | 0.1 µM | 0.316 µM |
| COc1cc(Nc2nc(COCC(F)(F)F)cc(NC3CC3)n2)ccc1-n1cnc(C)c1 [Example 34, N^4-Cyclopropyl-N^2-(3-methoxy-4-(4-methyl-1H-imidazol-1-yl)phenyl)-6-((2,2,2-trifluoroethoxy)methyl)pyrimidine-2,4-diamine] | 0.0501 µM | 0.1 µM |
| COc1cc(Nc2nc(COCC(F)(F)F)cc(NC3COC3)n2)ccc1-n1cnc(C)c1 [Example 35, N^2-(3-Methoxy-4-(4-methyl-1H-imidazol-1-yl)phenyl)-N^4-(oxetan-3-yl)-6-((2,2,2-trifluoroethoxy)methyl)pyrimidine-2,4-diamine] | 0.0501 µM | 0.0251 µM |
| COCCNc1cc(COCC(F)(F)F)nc(Nc2ccc(-n3cnc(C)c3)c(OC)c2)n1 [Example 37, N2-(3-Methoxy-4-(4-methyl-1H-imidazol-1-yl)phenyl)-N4-(2-methoxyethyl)-6-((2,2,2-trifluoroethoxy)methyl)pyrimidine-2,4-diamine] | 0.0398 µM | 0.0631 µM |
| COc1cc(Nc2nc(COCC(F)(F)F)cc(NCCC#N)n2)ccc1-n1cnc(C)c1 [Example 38, 3-(2-(3-Methoxy-4-(4-methyl-1H-imidazol-1-yl)phenylamino)-6-((2,2,2-trifluoroethoxy)-methyl)pyrimidin-4-ylamino)propanenitrile] | 0.0501 µM | 0.0398 µM |
| COc1cc(Nc2nc(COCC(F)(F)F)cc(CN3CC(F)C3)n2)ccc1-n1cnc(C)c1 [Example 40, 4-((3-Fluoroazetidin-1-yl)methyl)-N-(3-methoxy-4-(4-methyl-1H-imidazol-1-yl)phenyl)-6-((2,2,2-trifluoroethoxy)methyl)pyrimidin-2-amine] | 0.126 µM | 0.1 µM |
| COc1cc(Nc2nc(COCC(F)(F)F)cc(C(C)N3CC(F)C3)n2)ccc1-n1cnc(C)c1 (centres unmarked) [Example 43, 4-(1-(3-Fluoroazetidin-1-yl)ethyl)-N-(3-methoxy-4-(4-methyl-1H-imidazol-1-yl)phenyl)-6-((2,2,2-trifluoroethoxy)methyl)pyrimidin-2-amine] | 0.0316 µM | 0.158 µM |
| COc1cc(Nc2nc(COCC(F)(F)F)cc(C(C)O)n2)ccc1-n1cnc(C)c1 (centres unmarked) [Example 44, 1-(2-(3-Methoxy-4-(4-methyl-1H-imidazol-1-yl)phenylamino)-6-((2,2,2-trifluoroethoxy)-methyl)pyrimidin-4-yl)ethanol] | 0.0501 µM | 0.1 µM |
| CCC(C)(O)c1cc(COCC(F)(F)F)nc(Nc2ccc(-n3cnc(C)c3)c(OC)c2)n1 (centres unmarked) [Example 45, 2-(2-(3-Methoxy-4-(4-methyl-1H-imidazol-1-yl)phenylamino)-6-((2,2,2-trifluoroethoxy)-methyl)pyrimidin-4-yl)butan-2-ol] | 0.0501 µM | 0.0631 µM |
| COc1cc(Nc2nc(COCC(F)(F)F)cc(C(C)(C)O)n2)ccc1-c1cnnc(C)c1 [Example 47, 2-(2-(3-Methoxy-4-(6-methylpyridazin-4-yl)phenylamino)-6-((2,2,2-trifluoroethoxy)-methyl)pyrimidin-4-yl)propan-2-ol] | 0.0501 µM | 0.1 µM |
| COc1cc(Nc2nc(COC(CF)CF)cc(C(C)(C)O)n2)ccc1-n1cnc(C)c1 [Example 50, 2-(6-((1,3-Difluoropropan-2-yloxy)methyl)-2-(3-methoxy-4-(4-methyl-1H-imidazol-1-yl)phenylamino)pyrimidin-4-yl)propan-2-ol] | 0.0794 µM | 0.0631 µM |

Further lines, with some results ahead:

| IC50 (Aβ42 [2]) | Structure (SMILES) | IC50 (Aβ42 [1]) |
| --- | --- | --- |
| 0.0251 µM | COc1cc(Nc2nc(COCC(F)(F)F)cc(N(C)Cc3ccccc3)n2)ccc1-n1cnc(C)c1 [Example 25, N^4-Benzyl-N^2-(3-methoxy-4-(4-methyl-1H-imidazol-1-yl)phenyl)-N^4-methyl-6-((2,2,2-trifluoroethoxy)methyl)pyrimidine-2,4-diamine] | 0.0501 µM |
| 0.0398 µM | COc1cc(Nc2nc(COCC(F)(F)F)cc(C(O)C3CC3)n2)ccc1-n1cnc(C)c1 (centres unmarked) [Example 28, Cyclopropyl(2-(3-methoxy-4-(4-methyl-1H-imidazol-1-yl)phenylamino)-6-((2,2,2-trifluoroethoxy)methyl)pyrimidin-4-yl)methanol] | 0.1 µM |
| 0.0398 µM | COc1cc(Nc2nc(COCC3CC3)cc(C(C)(C)O)n2)ccc1-n1cnc(C)c1 [Example 29, 2-(6-((Cyclopropylmethoxy)methyl)-2-(3-methoxy-4-(4-methyl-1H-imidazol-1-yl)phenylamino)pyrimidin-4-yl)propan-2-ol] | 0.0631 µM |
| 0.0398 µM | CNc1cc(COCC2CC2)nc(Nc2ccc(-n3cnc(C)c3)c(OC)c2)n1 [Example 30, 6-((Cyclopropylmethoxy)methyl)-N2-(3-methoxy-4-(4-methyl-1H-imidazol-1-yl)phenyl)-N4-methylpyrimidine-2,4-diamine] | 0.0631 µM |
| 0.0398 µM | COc1cc(Nc2nc(COCC(F)(F)F)cc(NCC3CC3)n2)ccc1-n1cnc(C)c1 [Example 33, N^4-(Cyclopropylmethyl)-N^2-(3-methoxy-4-(4-methyl-1H-imidazol-1-yl)phenyl)-6-((2,2,2-trifluoroethoxy)methyl)pyrimidine-2,4-diamine] | 0.0501 µM |
| 0.0631 µM | COc1cc(Nc2nc(COCC(F)(F)F)cc(NCC(C)(C)O)n2)ccc1-n1cnc(C)c1 [Example 36, 1-(2-(3-Methoxy-4-(4-methyl-1H-imidazol-1-yl)phenylamino)-6-((2,2,2-trifluoroethoxy)-methyl)pyrimidin-4-ylamino)-2-methylpropan-2-ol] | 0.0398 µM |
| 0.126 µM | COc1cc(Nc2nc(CNCc3ccccc3)cc(COCC(F)(F)F)n2)ccc1-c1cnnc(C)c1 [Example 39, 4-((Benzylamino)methyl)-N-(3-methoxy-4-(6-methylpyridazin-4-yl)phenyl)-6-((2,2,2-trifluoroethoxy)methyl)pyrimidin-2-amine] | 0.2 µM |
| 0.0794 µM | COc1cc(Nc2nc(COCC(F)(F)F)cc(CN3CC(F)C3)n2)ccc1-c1cnnc(C)c1 [Example 42, 4-((3-Fluoroazetidin-1-yl)methyl)-N-(3-methoxy-4-(6-methylpyridazin-4-yl)phenyl)-6-((2,2,2-trifluoroethoxy)methyl)pyrimidin-2-amine] | 0.251 µM |
| 0.0398 µM | COc1cc(Nc2nc(COCC(F)(F)F)cc(C(C)(C)O)n2)ccc1-c1cnc(C)o1 [Example 46, 2-(2-(3-Methoxy-4-(2-methyloxazol-5-yl)phenylamino)-6-((2,2,2-trifluoroethoxy)methyl)-pyrimidin-4-yl)propan-2-ol] | 0.0794 µM |
| 0.0251 µM | COc1cc(Nc2nc(COCC(F)(F)F)cc(C(C)(O)C(C)C)n2)ccc1-c1cnc(C)o1 (centres unmarked) [Example 48, 2-(2-(3-Methoxy-4-(2-methyloxazol-5-yl)phenylamino)-6-((2,2,2-trifluoroethoxy)methyl)-pyrimidin-4-yl)-3-methylbutan-2-ol] | 0.0501 µM |
| 0.0794 µM | COc1cc(Nc2nc(COCC(F)(F)F)cc(C(O)c3ccccc3)n2)ccc1-n1cnc(C)c1 (centres unmarked) [Example 49, (2-(3-Methoxy-4-(4-methyl-1H-imidazol-1-yl)phenylamino)-6-((2,2,2-trifluoroethoxy)-methyl)pyrimidin-4-yl)(phenyl)methanol] | 0.0794 µM |
